Values joined by “and” are separate entries in the source; they are usually repeats but may differ in a detail not shown here. Equal entries are not always repeated. Inconclusive results and toxic doses are left out.

The assay relates to C57BL/6 mice, intracerebral ependymoblastoma, median survival T/C. Nature of the assay: NCI In Vivo Anticancer Drug Screen. Data for tumor model Ependymoblastoma (intracerebral) in C57BL/6 mice. Particulars: endpoint: median survival time, higher = longer survival. Here is the method: The antitumor activity of compounds was measured in mice bearing transplantable tumors. Survival or tumor size were measured and the results are expressed as the measurement made in the treated group (T) divided by the measurement made in the vehicle treated control group (C). The tumor model used in this assay is Ependymoblastoma (intracerebral) in C57BL/6 mice

Where [1] appears, read: dose: 64.0 mg/kg/injection, schedule: Q01DX005 (ip), vehicle: saline with Tween-80.
Where [2] appears, read: dose: 128.0 mg/kg/injection, schedule: Q01DX005 (ip), vehicle: saline with Tween-80.
[3] abbreviates: dose: 256.0 mg/kg/injection, schedule: Q01DX005 (ip), vehicle: saline with Tween-80.
The mark [4] stands for this setting: dose: 512.0 mg/kg/injection, schedule: Q01DX005 (ip), vehicle: saline with Tween-80.
Where [5] appears, read: dose: 0.75 mg/kg/injection, schedule: Q01DX009 (ip), vehicle: Klucel (hydroxypropylcellulose) (HPC).
The mark [6] stands for this setting: dose: 1.0 mg/kg/injection, schedule: Q01DX005 (ip), vehicle: saline.
Where [7] appears, read: dose: 1.5 mg/kg/injection, schedule: Q01DX009 (ip), vehicle: Klucel (hydroxypropylcellulose) (HPC).
[8] abbreviates: dose: 2.0 mg/kg/injection, schedule: Q01DX005 (ip), vehicle: saline.
Where [9] appears, read: dose: 3.0 mg/kg/injection, schedule: Q01DX009 (ip), vehicle: Klucel (hydroxypropylcellulose) (HPC).
Setting [10] is: dose: 6.25 mg/kg/injection, schedule: Q01DX005 (ip), vehicle: Klucel (hydroxypropylcellulose) (HPC).
Setting [11] is: dose: 12.5 mg/kg/injection, schedule: Q01DX005 (ip), vehicle: Klucel (hydroxypropylcellulose) (HPC).

Turning to `C[C@]1(O)CC[C@H]2[C@@H]3CCC4=CC(=O)CC[C@]4(C)[C@@]3(F)[C@@H](O)C[C@@]21C`, the T/C is, setting by setting: (dose: 8.0 mg/kg/injection, schedule: Q01DX005 (ip), vehicle: saline with Tween-80) 94 % of control and 99 % of control; (dose: 16.0 mg/kg/injection, schedule: Q01DX005 (ip), vehicle: saline with Tween-80) 93 % of control and 104 % of control; (dose: 32.0 mg/kg/injection, schedule: Q01DX005 (ip), vehicle: saline with Tween-80) 102 % of control and 105 % of control; under setting [1], 93 % of control and 96 % of control; under setting [2], 93 % of control and 96 % of control; under setting [3], 94 % of control and 100 % of control. In addition, the T/C under setting [4] was 93 % of control and 103 % of control.
As to `COc1ccc(C[C@H](N)C(=O)NC2C(CO)OC(n3cnc4c(N(C)C)ncnc43)C2O)cc1` (some centres not stated), the T/C is, setting by setting: (dose: 20.0 mg/kg/injection, schedule: Q01DX005 (ip), vehicle: saline) 104 % of control; (dose: 40.0 mg/kg/injection, schedule: Q01DX005 (ip), vehicle: saline) 101 % of control.
On to `O=C1NC2(CCCCC2)C(=O)N1CCN(CCCl)CCCl`, for which the T/C reads like this: under setting [5], 101 % of control; (dose: 1.0 mg/kg/injection, schedule: Q01DX005 (ip), vehicle: Klucel (hydroxypropylcellulose) (HPC)) 101 % of control; under setting [6], 105 % of control; under setting [7], 100 % of control; (dose: 2.0 mg/kg/injection, schedule: Q01DX005 (ip), vehicle: Klucel (hydroxypropylcellulose) (HPC)) 105 % of control; under setting [8], 93 % of control and 108 % of control. The T/C by setting is: under setting [9], 106 % of control; (dose: 4.0 mg/kg/injection, schedule: Q01DX005 (ip), vehicle: Klucel (hydroxypropylcellulose) (HPC)) 102 % of control; under setting [10], 119 % of control; (dose: 8.0 mg/kg/injection, schedule: Q01DX005 (ip), vehicle: Klucel (hydroxypropylcellulose) (HPC)) 94 % of control and 107 % of control; under setting [11], 114 % of control; (dose: 16.0 mg/kg/injection, schedule: Q01DX005 (ip), vehicle: Klucel (hydroxypropylcellulose) (HPC)) 97 % of control. In addition, for the setting “dose: 32.0 mg/kg/injection, schedule: Q01DX005 (ip), vehicle: saline”, the T/C was 111 % of control.
`O=P1(NCCCl)OCCC(OO)N1CCCl` (configuration not stated): the T/C was 121 % of control (dose: 40.0 mg/kg/injection, schedule: Q01DX001 (ip), vehicle: Klucel (hydroxypropylcellulose) (HPC)); 121 % of control (dose: 80.0 mg/kg/injection, schedule: Q01DX001 (ip), vehicle: Klucel (hydroxypropylcellulose) (HPC)); 151 % of control (dose: 160.0 mg/kg/injection, schedule: Q01DX001 (ip), vehicle: Klucel (hydroxypropylcellulose) (HPC)).
As to `N[C@@H](Cc1ccc(N(CCCl)CCCl)cc1)C(=O)O`, the T/C by setting is: (dose: 0.5 mg/kg/injection, schedule: Q01DX001 (ip), vehicle: saline) 103 % of control; (dose: 0.5 mg/kg/injection, schedule: Q01DX005 (ip), vehicle: saline) 106 % of control and 110 % of control; (dose: 1.0 mg/kg/injection, schedule: Q01DX001 (ip), vehicle: saline) 88 % of control; under setting [6], 96 % of control and 109 % of control and 110 % of control; (dose: 2.0 mg/kg/injection, schedule: Q01DX001 (ip), vehicle: saline) 102 % of control; under setting [8], 98 % of control and 108 % of control. For the same compound, the T/C runs as follows: (dose: 4.0 mg/kg/injection, schedule: Q01DX005 (ip), vehicle: saline) 111 % of control; (dose: 8.0 mg/kg/injection, schedule: Q01DX001 (ip), vehicle: saline) 119 % of control; (dose: 8.0 mg/kg/injection, schedule: Q01DX005 (ip), vehicle: saline) 100 % of control.
For the compound `O=C(CCBr)N1CCN(C(=O)CCBr)CC1`, the T/C by setting is: (dose: 2.5 mg/kg/injection, schedule: Q01DX005 (ip), vehicle: saline with Tween-80) 98 % of control; (dose: 5.0 mg/kg/injection, schedule: Q01DX005 (ip), vehicle: saline with Tween-80) 103 % of control; (dose: 10.0 mg/kg/injection, schedule: Q01DX005 (ip), vehicle: saline with Tween-80) 92 % of control; (dose: 20.0 mg/kg/injection, schedule: Q01DX005 (ip), vehicle: saline with Tween-80) 105 % of control; (dose: 40.0 mg/kg/injection, schedule: Q01DX005 (ip), vehicle: saline with Tween-80) 105 % of control; (dose: 80.0 mg/kg/injection, schedule: Q01DX005 (ip), vehicle: saline with Tween-80) 111 % of control.
Regarding `O=C1NC(=O)C2(CCc3ccc(N(CCCl)CCCl)cc32)N1` (configuration not stated), the T/C is 93 % of control under setting [5]; 101 % of control under setting [7]; 115 % of control under setting [9]; 98 % of control (dose: 6.0 mg/kg/injection, schedule: Q01DX009 (ip), vehicle: Klucel (hydroxypropylcellulose) (HPC)); 114 % of control under setting [10]; 91 % of control (dose: 12.0 mg/kg/injection, schedule: Q01DX009 (ip), vehicle: Klucel (hydroxypropylcellulose) (HPC)). The T/C is 115 % of control under setting [11] and 102 % of control (dose: 25.0 mg/kg/injection, schedule: Q01DX005 (ip), vehicle: Klucel (hydroxypropylcellulose) (HPC)).
Regarding `Cc1cn(C2CC(O)C(CO)O2)c(=O)[nH]c1=O` (configuration not stated), the T/C is, setting by setting: under setting [1], 92 % of control and 97 % of control; (dose: 100.0 mg/kg/injection, schedule: Q01DX005 (ip), vehicle: saline with Tween-80) 91 % of control; under setting [2], 90 % of control and 105 % of control; (dose: 200.0 mg/kg/injection, schedule: Q01DX005 (ip), vehicle: saline with Tween-80) 98 % of control; under setting [3], 95 % of control and 87 % of control; (dose: 400.0 mg/kg/injection, schedule: Q01DX005 (ip), vehicle: saline with Tween-80) 96 % of control. Further, the T/C reads like this: under setting [4], 100 % of control; (dose: 800.0 mg/kg/injection, schedule: Q01DX005 (ip), vehicle: saline with Tween-80) 98 % of control; (dose: 1024.0 mg/kg/injection, schedule: Q01DX005 (ip), vehicle: saline with Tween-80) 100 % of control and 101 % of control; (dose: 1600.0 mg/kg/injection, schedule: Q01DX005 (ip), vehicle: saline with Tween-80) 98 % of control.
Turning to `ClC1C(Cl)C(Cl)C(Cl)C(Cl)C1Cl` (configuration not stated), the T/C reads like this: (dose: 45.0 mg/kg/injection, schedule: Q01DX005 (ip), vehicle: saline with Tween-80) 96 % of control and 87 % of control; (dose: 90.0 mg/kg/injection, schedule: Q01DX005 (ip), vehicle: saline with Tween-80) 94 % of control and 98 % of control; (dose: 180.0 mg/kg/injection, schedule: Q01DX005 (ip), vehicle: saline with Tween-80) 107 % of control; (dose: 360.0 mg/kg/injection, schedule: Q01DX005 (ip), vehicle: saline with Tween-80) 96 % of control and 103 % of control.

(Values after PubChem BioAssay AID222 (DTP/NCI, 2004).)
